# Measured values from patent publication US20240108601A1, “TREATMENT OF MENTAL DISORDERS” (GH Research Ireland Limited, priority 2022, published 2024).
# Values joined by “and” are separate entries in the source; they are usually repeats but may differ in a detail not shown here. Equal entries are not always repeated.
# Tested on: patients with treatment-resistant major depressive disorder (TRD)
# Experiment: Phase 1/2 clinical trial of inhaled 5-MeO-DMT in treatment-resistant depression
# Settings: for MADRS Concentration Difficulties % improvement / MADRS Concentration Difficulties improvement / MADRS Inability to Feel % improvement / MADRS Inability to Feel improvement / MADRS Inner Tension % improvement / MADRS Inner Tension improvement / MADRS Lassitude % improvement / MADRS Lassitude improvement / MADRS Pessimistic Thoughts % improvement / MADRS Pessimistic Thoughts improvement / MADRS Suicidal Thoughts % improvement / MADRS Suicidal Thoughts improvement / MADRS Suicidal Thoughts aggregated score / MADRS Inner Tension aggregated score / MADRS Concentration Difficulties aggregated score / MADRS Inability to Feel aggregated score / MADRS Lassitude aggregated score / MADRS Pessimistic Thoughts aggregated score / BPRS Anxiety % improvement / BPRS Anxiety improvement / BPRS Blunted Affect % improvement / BPRS Blunted Affect improvement / BPRS Emotional Withdrawal % improvement / BPRS Emotional Withdrawal improvement / BPRS Guilt Feelings % improvement / BPRS Guilt Feelings improvement / BPRS Tension % improvement / BPRS Tension improvement / BPRS Blunted Affect aggregated score / BPRS Emotional Withdrawal aggregated score / BPRS Tension aggregated score / BPRS Guilt Feelings aggregated score / BPRS Anxiety aggregated score / MADRS Reduced Sleep % improvement / MADRS Reduced Sleep improvement / MADRS Reduced Sleep aggregated score: 12 mg n=4; for MADRS Suicidal Thoughts aggregated score: baseline 8; for MADRS Inner Tension aggregated score / BPRS Emotional Withdrawal aggregated score: baseline 13; for MADRS Concentration Difficulties aggregated score / MADRS Inability to Feel aggregated score / MADRS Lassitude aggregated score / MADRS Pessimistic Thoughts aggregated score: baseline 16; for BPRS Blunted Affect aggregated score: baseline 11; for BPRS Tension aggregated score: baseline 14; for BPRS Guilt Feelings aggregated score: baseline 18; for BPRS Anxiety aggregated score: baseline 25; for MADRS Reduced Sleep aggregated score: baseline 12
# Method: Patients were assigned to different groups. In the context of the present invention, the group who received a single, 12 mg dose and the group who underwent an intra-day individualized dosing regimen (IDR) that allowed for multiple, escalating doses (6 mg, 12 mg and 18 mg) within a single day, driven by the intensity of the patient-reported psychedelic experience are of interest.
# The data gathered include the assessment of the treated patients against several scales including the Montgomery Åsberg Depression Rating Scale (MADRS) and the Brief Psychiatric Rating Scale (BPRS).
# This trial was designed in two parts. Part A was an open-label, single-arm, single-dose Phase 1 trial with two dose levels (12 mg (n=4) and 18 mg (n=4)). […] The primary endpoint of Part B was to assess the effects on the severity of depression, as assessed by the proportion of patients in remission on day seven after dosing, defined as a MADRS total score of less than or equal to 10.
structure (smiles),measurement,setting,value
COc1ccc2[nH]cc(CCN(C)C)c2c1 [5-MeO-DMT],Patients with MADRS remission (total score ≤10),"12 mg group n=4, day seven",50%
same,Mean MADRS change from baseline,"12 mg group, day seven",−21.0
same,"Mean MADRS change from baseline, percent","12 mg group, day seven",−65%
same,MADRS Concentration Difficulties % improvement,2 h,56% and 56.25%
same,MADRS Concentration Difficulties improvement,2 h,9 points
same,MADRS Inability to Feel % improvement,2 h,44% and 43.75%
same,MADRS Inability to Feel improvement,2 h,7 points
same,MADRS Inner Tension % improvement,2 h,85% and 84.62%
same,MADRS Inner Tension improvement,2 h,11 points
same,MADRS Lassitude % improvement,2 h,38% and 37.50%
same,MADRS Lassitude improvement,2 h,6 points
same,MADRS Pessimistic Thoughts % improvement,2 h,50%
same,MADRS Pessimistic Thoughts improvement,2 h,8 points
same,MADRS Suicidal Thoughts % improvement,2 h,63% and 62.50%
same,MADRS Suicidal Thoughts improvement,2 h,5 points
same,MADRS Suicidal Thoughts aggregated score,2 h,3
same,MADRS Inner Tension aggregated score,2 h,2
same,MADRS Concentration Difficulties aggregated score,2 h,7
same,MADRS Inability to Feel aggregated score,2 h,9
same,MADRS Lassitude aggregated score,2 h,10
same,MADRS Pessimistic Thoughts aggregated score,2 h,8
same,BPRS Anxiety % improvement,3 h,56%
same,BPRS Anxiety improvement,3 h,14 points
same,BPRS Blunted Affect % improvement,3 h,27% and 27.27%
same,BPRS Blunted Affect improvement,3 h,3 points
same,BPRS Emotional Withdrawal % improvement,3 h,15% and 15.38%
same,BPRS Emotional Withdrawal improvement,3 h,2 points
same,BPRS Guilt Feelings % improvement,3 h,50%
same,BPRS Guilt Feelings improvement,3 h,9 points
same,BPRS Tension % improvement,3 h,36% and 35.71%
same,BPRS Tension improvement,3 h,5 points
same,BPRS Blunted Affect aggregated score,3 h,8
same,BPRS Emotional Withdrawal aggregated score,3 h,11
same,BPRS Tension aggregated score,3 h,9
same,BPRS Guilt Feelings aggregated score,3 h,9
same,BPRS Anxiety aggregated score,3 h,11
same,BPRS Anxiety % improvement,day 1,76%
same,BPRS Anxiety improvement,day 1,19 points
same,BPRS Blunted Affect % improvement,day 1,45% and 45.45%
same,BPRS Blunted Affect improvement,day 1,5 points
same,BPRS Emotional Withdrawal % improvement,day 1,38% and 38.46%
same,BPRS Emotional Withdrawal improvement,day 1,5 points
same,BPRS Guilt Feelings % improvement,day 1,72% and 72.22%
same,BPRS Guilt Feelings improvement,day 1,13 points
same,BPRS Tension % improvement,day 1,57% and 57.14%
same,BPRS Tension improvement,day 1,8 points
same,MADRS Concentration Difficulties % improvement,day 1,88% and 87.50%
same,MADRS Concentration Difficulties improvement,day 1,14 points
same,MADRS Inability to Feel % improvement,day 1,94% and 93.75%
same,MADRS Inability to Feel improvement,day 1,15 points
same,MADRS Inner Tension % improvement,day 1,77% and 76.92%
same,MADRS Inner Tension improvement,day 1,10 points
same,MADRS Lassitude % improvement,day 1,100%
same,MADRS Lassitude improvement,day 1,16 points
same,MADRS Pessimistic Thoughts % improvement,day 1,56% and 56.25%
same,MADRS Pessimistic Thoughts improvement,day 1,9 points
same,MADRS Reduced Sleep % improvement,day 1,17% and 16.67%
same,MADRS Reduced Sleep improvement,day 1,2 points
same,MADRS Suicidal Thoughts % improvement,day 1,38% and 37.50%
same,MADRS Suicidal Thoughts improvement,day 1,3 points
same,MADRS Suicidal Thoughts aggregated score,day 1,5
same,BPRS Blunted Affect aggregated score,day 1,6
same,MADRS Reduced Sleep aggregated score,day 1,10
same,BPRS Emotional Withdrawal aggregated score,day 1,8
same,MADRS Inner Tension aggregated score,day 1,3
same,BPRS Tension aggregated score,day 1,6
same,MADRS Concentration Difficulties aggregated score,day 1,2
same,MADRS Inability to Feel aggregated score,day 1,1
same,MADRS Lassitude aggregated score,day 1,0
same,MADRS Pessimistic Thoughts aggregated score,day 1,7
same,BPRS Guilt Feelings aggregated score,day 1,5
same,BPRS Anxiety aggregated score,day 1,6
same,BPRS Anxiety % improvement,day 7,76%
same,BPRS Anxiety improvement,day 7,19 points
same,BPRS Blunted Affect % improvement,day 7,55% and 54.55%
same,BPRS Blunted Affect improvement,day 7,6 points
same,BPRS Emotional Withdrawal % improvement,day 7,54% and 53.85%
same,BPRS Emotional Withdrawal improvement,day 7,7 points
same,BPRS Guilt Feelings % improvement,day 7,72% and 72.22%
same,BPRS Guilt Feelings improvement,day 7,13 points
same,BPRS Tension % improvement,day 7,57% and 57.14%
same,BPRS Tension improvement,day 7,8 points
same,MADRS Concentration Difficulties % improvement,day 7,81% and 81.25%
same,MADRS Concentration Difficulties improvement,day 7,13 points
same,MADRS Inability to Feel % improvement,day 7,94% and 93.75%
same,MADRS Inability to Feel improvement,day 7,15 points
same,MADRS Inner Tension % improvement,day 7,62% and 61.54%
same,MADRS Inner Tension improvement,day 7,8 points
same,MADRS Lassitude % improvement,day 7,81% and 81.25%
same,MADRS Lassitude improvement,day 7,13 points
same,MADRS Pessimistic Thoughts % improvement,day 7,50%
same,MADRS Pessimistic Thoughts improvement,day 7,8 points
same,MADRS Reduced Sleep % improvement,day 7,50%
same,MADRS Reduced Sleep improvement,day 7,6 points
same,MADRS Suicidal Thoughts % improvement,day 7,13% and 12.50%
same,MADRS Suicidal Thoughts improvement,day 7,1 points
same,MADRS Suicidal Thoughts aggregated score,day 7,7
same,BPRS Blunted Affect aggregated score,day 7,5
same,MADRS Reduced Sleep aggregated score,day 7,6
same,BPRS Emotional Withdrawal aggregated score,day 7,6
same,MADRS Inner Tension aggregated score,day 7,5
same,BPRS Tension aggregated score,day 7,6
same,MADRS Concentration Difficulties aggregated score,day 7,3
same,MADRS Inability to Feel aggregated score,day 7,1
same,MADRS Lassitude aggregated score,day 7,3
same,MADRS Pessimistic Thoughts aggregated score,day 7,8
same,BPRS Guilt Feelings aggregated score,day 7,5
same,BPRS Anxiety aggregated score,day 7,6
same,Further patients with MADRS clinical response,"18 mg group n=4, day seven",25%
same,Patients with MADRS remission (total score ≤10),"18 mg group n=4, day seven",25%
same,Mean MADRS change from baseline,"18 mg group, day seven",−12.8
same,"Mean MADRS change from baseline, percent","18 mg group, day seven",−41%
same,Patients with MADRS remission (total score ≤10),"IDR (Part B) n=8, day seven, p<0.0001",87.5%
